Experimental data: PMC9977294, “A parasitic fungus employs mutated eIF4A to survive on rocaglate-synthesizing Aglaia plants” (eLife, 2023)
Where “and” joins values, the source holds several entries; their conditions need not be identical. Equal entries are not always repeated.

Key:
Test in all cases: Fluorescence polarization assay, FAM-labeled [AG]10 RNA and recombinant eIF4A
Format in all cases: binding
[1] = biological target: T1, H. sapiens eIF4A1 Phe163Gly (Homo sapiens, UniProt P60842, F163G)
T1 construct: His tag (N); made in house; host or cells: E. coli BL21 Star (DE3)
T1 sequence (P60842 whole entry F163G): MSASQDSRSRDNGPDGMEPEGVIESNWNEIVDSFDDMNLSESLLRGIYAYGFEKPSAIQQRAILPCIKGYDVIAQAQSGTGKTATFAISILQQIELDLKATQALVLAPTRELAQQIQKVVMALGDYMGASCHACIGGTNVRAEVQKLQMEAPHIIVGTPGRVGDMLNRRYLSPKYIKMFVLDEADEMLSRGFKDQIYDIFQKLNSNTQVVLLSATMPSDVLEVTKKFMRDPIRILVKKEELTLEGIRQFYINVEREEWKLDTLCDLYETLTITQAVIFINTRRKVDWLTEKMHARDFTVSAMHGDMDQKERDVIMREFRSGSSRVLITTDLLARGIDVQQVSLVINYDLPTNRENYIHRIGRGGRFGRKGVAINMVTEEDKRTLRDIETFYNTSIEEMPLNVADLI

[2] = biological target: T2, H. sapiens eIF4A1 Phe163His (Homo sapiens, UniProt P60842, F163H); settings: RocA 50 µM
T2 construct: His tag (N); made in house; host or cells: E. coli BL21 Star (DE3)
T2 sequence (P60842 whole entry F163H): as the sequence (P60842 whole entry F163G) above, with G163H counted along it

[3] = biological target: T3, H. sapiens eIF4A1 WT Phe163 (Homo sapiens, UniProt P60842); settings: RocA 50 µM
T3 construct: His tag (N); made in house; host or cells: E. coli BL21 Star (DE3)
T3 sequence (P60842 whole entry): as the sequence (P60842 whole entry F163G) above, with G163F counted along it

[4] = [AG]10, ADP + Pi, RocA 50 µM, protein 0.01 μM
[5] = [AG]10, ADP + Pi, RocA 50 µM, protein 0.05 μM
[6] = [AG]10, ADP + Pi, RocA 50 µM, protein 0.075 μM
[7] = [AG]10, ADP + Pi, RocA 50 µM, protein 0.1 μM
[8] = [AG]10, ADP + Pi, RocA 50 µM, protein 0.5 μM
[9] = [AG]10, ADP + Pi, RocA 50 µM, protein 0.75 μM
[10] = [AG]10, ADP + Pi, RocA 50 µM, protein 1 μM
[11] = [AG]10, ADP + Pi, RocA 50 µM, protein 5 μM
[12] = [AG]10, ADP + Pi, RocA 50 µM, protein 7.5 μM
[13] = [AG]10, ADP + Pi, RocA 50 µM, protein 10 μM
[14] = [AG]10, ADP + Pi, RocA 50 µM, protein 25 μM
[15] = [AG]10, ADP + Pi, RocA 50 µM, protein 50 μM
[16] = [AG]10 RNA, AMP-PNP, RocA, protein concentration 0.01 μM
[17] = [AG]10 RNA, AMP-PNP, RocA, protein concentration 0.05 μM
[18] = [AG]10 RNA, AMP-PNP, RocA, protein concentration 0.075 μM
[19] = [AG]10 RNA, AMP-PNP, RocA, protein concentration 0.1 μM
[20] = [AG]10 RNA, AMP-PNP, RocA, protein concentration 0.5 μM
[21] = [AG]10 RNA, AMP-PNP, RocA, protein concentration 0.75 μM
[22] = [AG]10 RNA, AMP-PNP, RocA, protein concentration 1 μM
[23] = [AG]10 RNA, AMP-PNP, RocA, protein concentration 5 μM
[24] = [AG]10 RNA, AMP-PNP, RocA, protein concentration 7.5 μM
[25] = [AG]10 RNA, AMP-PNP, RocA, protein concentration 10 μM
[26] = [AG]10 RNA, AMP-PNP, RocA, protein concentration 25 μM
[27] = [AG]10 RNA, AMP-PNP, RocA, protein concentration 50 μM

COc1ccc([C@@]23Oc4cc(OC)cc(OC)c4[C@]2(O)[C@H](O)[C@H](C(=O)N(C)C)[C@H]3c2ccccc2)cc1 [RocA, rocaglamide A]
fluorescence polarization, Mean [1, 4]: 0.04918
fluorescence polarization, replicates [1, 4]: 0.1421 and 0.05191 and -0.04645
fluorescence polarization, Mean [1, 5]: 0.02732
fluorescence polarization, replicates [1, 5]: 0.2322 and -0.03005 and -0.1202
fluorescence polarization, Mean [1, 6]: -0.02459
fluorescence polarization, replicates [1, 6]: 0.06011 and -0.02186 and -0.112
fluorescence polarization, Mean [1, 7]: -0.01913
fluorescence polarization, replicates [1, 7]: -0.03005 and -0.01366 (2×)
fluorescence polarization, Mean [1, 8]: -0.02459
fluorescence polarization, replicates [1, 8]: 0.0765 and 0.04372 and -0.194
fluorescence polarization, Mean [1, 9]: -0.02459
fluorescence polarization, replicates [1, 9]: 0.1831 and -0.05465 and -0.2022
fluorescence polarization, Mean [1, 10]: -0.01913
fluorescence polarization, replicates [1, 10]: 0.1093 and -0.06284 and -0.1038
fluorescence polarization, Mean [1, 11]: 0.224
fluorescence polarization, replicates [1, 11]: 0.3634 and 0.224 and 0.0847
fluorescence polarization, Mean [1, 12]: 0.1721
fluorescence polarization, replicates [1, 12]: 0.3798 and 0.03552 and 0.1011
fluorescence polarization, Mean [1, 13]: 0.276
fluorescence polarization, replicates [1, 13]: 0.3962 and 0.1585 and 0.2732
fluorescence polarization, Mean [1, 14]: 0.5137
fluorescence polarization, replicates [1, 14]: 0.7404 and 0.5273 and 0.2732
fluorescence polarization, Mean [1, 15]: 0.582
fluorescence polarization, replicates [1, 15]: 0.7568 and 0.5437 and 0.4454
Fluorescence polarization, Replicate 1-3 [1, 16]: 0.04918 and -0.08197 and -0.1475
fluorescence polarization, Mean [1, 16]: -0.06011
Fluorescence polarization, Replicate 1-3 [1, 17]: 0.1311 and -0.09016 and -0.09836
fluorescence polarization, Mean [1, 17]: -0.01913
Fluorescence polarization, Replicate 1-3 [1, 18]: -0.04098 and -0.1393 and -0.09836
fluorescence polarization, Mean [1, 18]: -0.0929
Fluorescence polarization, Replicate 1-3 [1, 19]: 0.07377 and 0.02459 and -0.06557
fluorescence polarization, Mean [1, 19]: 0.01093
Fluorescence polarization, Replicate 1-3 [1, 20]: 0.5984 and 0.4918 and 0.4016
fluorescence polarization, Mean [1, 20]: 0.4973
Fluorescence polarization, Replicate 1-3 [1, 21]: 0.4508 and 0.2049 and 0.1148
fluorescence polarization, Mean [1, 21]: 0.2568
Fluorescence polarization, Replicate 1-3 [1, 22]: 0.5082 and 0.3689 (2×)
fluorescence polarization, Mean [1, 22]: 0.4153
Fluorescence polarization, Replicate 1-3 [1, 23]: 0.7131 and 0.7705 and 0.7541
fluorescence polarization, Mean [1, 23]: 0.7459
Fluorescence polarization, Replicate 1-3 [1, 24]: 0.6393 and 0.6721 and 0.5902
fluorescence polarization, Mean [1, 24]: 0.6339
Fluorescence polarization, Replicate 1-3 [1, 25]: 0.7951 and 0.7459 and 0.7705
fluorescence polarization, Mean [1, 25]: 0.7705
Fluorescence polarization, Replicate 1-3 [1, 26]: 0.7623 and 0.7213 and 0.6639
fluorescence polarization, Mean [1, 26]: 0.7158
Fluorescence polarization, Replicate 1-3 [1, 27]: 0.9016 and 0.7623 and 0.7787
fluorescence polarization, Mean [1, 27]: 0.8142
fluorescence polarization, Mean ([2]; ADP + Pi, protein 0.01 μM): -0.03005
fluorescence polarization, replicates ([2]; ADP + Pi, protein 0.01 μM): 0.07104 and -0.06011 and -0.1011
fluorescence polarization, Mean ([2]; ADP + Pi, protein 0.05 μM): -0.008197
fluorescence polarization, replicates ([2]; ADP + Pi, protein 0.05 μM): 0.03005 and 0.005464 and -0.06011
fluorescence polarization, Mean ([2]; ADP + Pi, protein 0.075 μM): 0.02186
fluorescence polarization, replicates ([2]; ADP + Pi, protein 0.075 μM): 0.03005 and 0.01366 and 0.02186
fluorescence polarization, Mean ([2]; ADP + Pi, protein 0.1 μM): 0.01639
fluorescence polarization, replicates ([2]; ADP + Pi, protein 0.1 μM): 0.04645 and -0.01913 and 0.02186
fluorescence polarization, Mean ([2]; ADP + Pi, protein 0.5 μM): 0.08197
fluorescence polarization, replicates ([2]; ADP + Pi, protein 0.5 μM): 0.04645 and 0.1038 and 0.09563
fluorescence polarization, Mean ([2]; ADP + Pi, protein 0.75 μM): 0.06831
fluorescence polarization, replicates ([2]; ADP + Pi, protein 0.75 μM): 0.1448 and -0.01913 and 0.07923
fluorescence polarization, Mean ([2]; ADP + Pi, protein 1 μM): 0.1694
fluorescence polarization, replicates ([2]; ADP + Pi, protein 1 μM): 0.2514 and 0.1694 and 0.08743
fluorescence polarization, Mean ([2]; ADP + Pi, protein 5 μM): 0.3306
fluorescence polarization, replicates ([2]; ADP + Pi, protein 5 μM): 0.3415 and 0.3661 and 0.2842
fluorescence polarization, Mean ([2]; ADP + Pi, protein 7.5 μM): 0.4153
fluorescence polarization, replicates ([2]; ADP + Pi, protein 7.5 μM): 0.3579 and 0.4973 and 0.3907
fluorescence polarization, Mean ([2]; ADP + Pi, protein 10 μM): 0.5765
fluorescence polarization, replicates ([2]; ADP + Pi, protein 10 μM): 0.694 and 0.5301 and 0.5055
fluorescence polarization, Mean ([2]; ADP + Pi, protein 25 μM): 0.6311
fluorescence polarization, replicates ([2]; ADP + Pi, protein 25 μM): 0.6366 and 0.7022 and 0.5546
fluorescence polarization, Mean ([2]; ADP + Pi, protein 50 μM): 0.8251
fluorescence polarization, replicates ([2]; ADP + Pi, protein 50 μM): 0.7268 and 0.8579 and 0.8907
fluorescence polarization, Mean ([2]; AMP-PNP, protein 0.01 μM): -0.005464
fluorescence polarization, Mean ([2]; AMP-PNP, protein 0.05 μM): 0.0847
fluorescence polarization, Mean ([2]; AMP-PNP, protein 0.075 μM): 0.1721
fluorescence polarization, Mean ([2]; AMP-PNP, protein 0.1 μM): 0.3169
fluorescence polarization, replicates ([2]; AMP-PNP, protein 0.1 μM): 0.2705 and 0.3525 and 0.3279
fluorescence polarization, Mean ([2]; AMP-PNP, protein 0.5 μM): 0.7951
fluorescence polarization, replicates ([2]; AMP-PNP, protein 0.5 μM): 0.7705 and 0.7869 and 0.8279
fluorescence polarization, Mean ([2]; AMP-PNP, protein 0.75 μM): 0.8306
fluorescence polarization, replicates ([2]; AMP-PNP, protein 0.75 μM): 0.8361
fluorescence polarization, Mean ([2]; AMP-PNP, protein 1 μM): 0.9317
fluorescence polarization, Mean ([2]; AMP-PNP, protein 5 μM): 0.9536
fluorescence polarization, Mean ([2]; AMP-PNP, protein 7.5 μM): 0.8907
fluorescence polarization, Mean ([2]; AMP-PNP, protein 10 μM): 0.9481
fluorescence polarization, Mean ([2]; AMP-PNP, protein 25 μM): 0.9481
fluorescence polarization, Mean ([2]; AMP-PNP, protein 50 μM): 1
fluorescence polarization, Mean ([3]; ADP + Pi, protein 0.01 μM): 0.08197
fluorescence polarization, Mean ([3]; ADP + Pi, protein 0.05 μM): 0.09836
fluorescence polarization, Mean ([3]; ADP + Pi, protein 0.075 μM): 0.06831
fluorescence polarization, Mean ([3]; ADP + Pi, protein 0.1 μM): 0.1776
fluorescence polarization, Mean ([3]; ADP + Pi, protein 0.5 μM): 0.5956
fluorescence polarization, Mean ([3]; ADP + Pi, protein 0.75 μM): 0.735
fluorescence polarization, Mean ([3]; ADP + Pi, protein 1 μM): 0.6831
fluorescence polarization, Mean ([3]; ADP + Pi, protein 5 μM): 0.9481
fluorescence polarization, Mean ([3]; ADP + Pi, protein 7.5 μM): 0.8825
fluorescence polarization, Mean ([3]; ADP + Pi, protein 10 μM): 0.9699
fluorescence polarization, Mean ([3]; ADP + Pi, protein 25 μM): 1.044
fluorescence polarization, Mean ([3]; ADP + Pi, protein 50 μM): 1.0929
fluorescence polarization, Mean ([3]; AMP-PNP, protein 0.01 μM): 0.2213
fluorescence polarization, Mean ([3]; AMP-PNP, protein 0.05 μM): 0.7268
fluorescence polarization, Mean ([3]; AMP-PNP, protein 0.075 μM): 0.4973
fluorescence polarization, Mean ([3]; AMP-PNP, protein 0.1 μM): 0.765
fluorescence polarization, Mean ([3]; AMP-PNP, protein 0.5 μM): 1.016
fluorescence polarization, Mean ([3]; AMP-PNP, protein 0.75 μM): 1.0082
fluorescence polarization, Mean ([3]; AMP-PNP, protein 1 μM): 1.049
fluorescence polarization, Mean ([3]; AMP-PNP, protein 5 μM): 1.046
fluorescence polarization, Mean ([3]; AMP-PNP, protein 7.5 μM): 1.123
fluorescence polarization, Mean ([3]; AMP-PNP, protein 10 μM): 1.156
fluorescence polarization, Mean ([3]; AMP-PNP, protein 25 μM): 1.142
fluorescence polarization, Mean ([3]; AMP-PNP, protein 50 μM): 1.15
